For one assay, the target named is Helios (IKZF2) (Homo sapiens, UniProt Q96SW2+Q9UKS7). Kind of assay: Screening of Helios protein degraders using Nano-Glo HiBiT cell line (HiBiT-IKZF2). It is filed as cell-based. Conditions: for remaining activity at 10 µM: compound 10 μM, read-out: HiBiT-IKZF2 Residual amount of Helios (%) 10 μM; for remaining activity at 10 µM / remaining activity at 1 µM: 6 hours, HiBiT-Helios knock-in Jurkat cells; for remaining activity at 1 µM: compound 1 μM, read-out: HiBiT-IKZF2 Residual amount of Helios (%) 1 μM.
Helios (IKZF2), sequence (Q9UKS7 whole entry): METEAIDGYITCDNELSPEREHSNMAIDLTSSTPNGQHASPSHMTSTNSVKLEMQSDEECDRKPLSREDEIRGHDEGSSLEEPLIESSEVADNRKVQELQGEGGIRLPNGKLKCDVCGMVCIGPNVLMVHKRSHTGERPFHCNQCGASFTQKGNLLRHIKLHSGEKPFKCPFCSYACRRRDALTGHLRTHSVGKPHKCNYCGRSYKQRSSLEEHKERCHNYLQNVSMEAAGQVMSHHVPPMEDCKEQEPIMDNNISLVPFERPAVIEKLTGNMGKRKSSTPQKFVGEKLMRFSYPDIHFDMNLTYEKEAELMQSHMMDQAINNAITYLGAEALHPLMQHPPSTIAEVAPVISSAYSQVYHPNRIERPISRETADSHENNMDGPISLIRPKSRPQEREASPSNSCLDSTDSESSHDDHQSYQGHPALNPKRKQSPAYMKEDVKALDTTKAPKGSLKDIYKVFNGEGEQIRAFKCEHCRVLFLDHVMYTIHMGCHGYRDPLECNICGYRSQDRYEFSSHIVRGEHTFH
Helios (IKZF2), sequence (Q96SW2 whole entry): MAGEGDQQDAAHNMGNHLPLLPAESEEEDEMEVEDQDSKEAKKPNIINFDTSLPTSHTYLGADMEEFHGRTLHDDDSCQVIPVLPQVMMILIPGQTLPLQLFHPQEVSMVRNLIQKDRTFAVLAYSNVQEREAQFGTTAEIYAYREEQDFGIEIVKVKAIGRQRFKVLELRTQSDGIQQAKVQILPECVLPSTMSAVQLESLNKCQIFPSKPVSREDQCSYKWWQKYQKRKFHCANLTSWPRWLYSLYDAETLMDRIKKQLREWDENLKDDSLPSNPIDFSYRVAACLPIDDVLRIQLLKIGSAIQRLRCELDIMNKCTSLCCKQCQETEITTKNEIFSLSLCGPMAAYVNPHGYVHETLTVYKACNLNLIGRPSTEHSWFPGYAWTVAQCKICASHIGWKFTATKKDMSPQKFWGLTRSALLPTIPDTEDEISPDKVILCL
Helios (IKZF2), sequence (Q16531 whole entry partner): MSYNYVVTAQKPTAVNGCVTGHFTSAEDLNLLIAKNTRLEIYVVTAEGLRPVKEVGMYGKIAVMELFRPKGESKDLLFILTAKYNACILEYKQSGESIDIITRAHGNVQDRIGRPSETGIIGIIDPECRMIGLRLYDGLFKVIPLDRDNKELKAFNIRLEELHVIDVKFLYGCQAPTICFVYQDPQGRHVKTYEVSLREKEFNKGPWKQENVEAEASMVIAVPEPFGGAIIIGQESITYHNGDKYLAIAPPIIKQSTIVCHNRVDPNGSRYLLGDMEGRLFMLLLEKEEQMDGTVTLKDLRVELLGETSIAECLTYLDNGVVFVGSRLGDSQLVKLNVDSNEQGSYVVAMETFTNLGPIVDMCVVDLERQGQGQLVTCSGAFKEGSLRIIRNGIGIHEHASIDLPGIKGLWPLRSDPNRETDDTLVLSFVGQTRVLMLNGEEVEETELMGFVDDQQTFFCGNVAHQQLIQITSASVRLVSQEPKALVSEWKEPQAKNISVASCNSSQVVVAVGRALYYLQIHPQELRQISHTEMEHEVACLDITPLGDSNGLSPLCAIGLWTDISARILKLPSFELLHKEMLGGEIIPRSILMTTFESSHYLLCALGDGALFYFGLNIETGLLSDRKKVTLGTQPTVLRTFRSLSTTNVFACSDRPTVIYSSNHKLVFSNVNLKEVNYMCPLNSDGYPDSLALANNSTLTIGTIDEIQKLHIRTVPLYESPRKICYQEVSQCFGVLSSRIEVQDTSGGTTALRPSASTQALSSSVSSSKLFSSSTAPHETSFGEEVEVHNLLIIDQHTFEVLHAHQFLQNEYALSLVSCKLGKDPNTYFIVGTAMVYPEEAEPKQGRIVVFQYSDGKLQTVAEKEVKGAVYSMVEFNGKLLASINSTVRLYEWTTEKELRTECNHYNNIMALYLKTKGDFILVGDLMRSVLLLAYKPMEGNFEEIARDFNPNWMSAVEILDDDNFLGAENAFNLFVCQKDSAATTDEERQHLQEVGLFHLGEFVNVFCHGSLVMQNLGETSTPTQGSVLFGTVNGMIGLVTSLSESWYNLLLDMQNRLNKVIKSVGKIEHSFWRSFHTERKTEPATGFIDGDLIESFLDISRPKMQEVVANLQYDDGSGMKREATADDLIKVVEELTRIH

In the next assay the target is IKZF2 (Helios) (Homo sapiens, UniProt Q96SW2+Q9UKS7). Kind of assay: Screening of DC50 (nM) and Dmax (%) using WB-IKZF2 cell line (Western blot). It is filed as cell-based. On the set-up: endogenous in cells. Particulars: 6 hours; for DC50: class symbols, read-out: WB-IKZF2 DC 50. As for the experimental part:
Experimental Example 2. Screening of DC50 (nM) and Dmax (%) Using WB-IKZF2 Cell Line
Candidate degraders were serially diluted and treated in cells cultured in complete medium, followed by incubation for 6 hours at 37° C. in a CO2 incubator. After 6 hours, the cells were harvested and lysed in RIPA buffer (150 mM NaCl, 1% Triton X-100, 1% sodium deoxycholate, 0.1% SDS, 50 mM Tris-HCl pH 7.5, and 2 mM EDTA) containing a protease inhibitor cocktail (Roche). The mixture was vortexed every 10 minutes and incubated on ice for 30 minutes, followed by centrifugation at 13,000 rpm for 10 minutes at 4° C. to isolate proteins. The isolated proteins were quantified using the Bradford assay (Bio-Rad, 5000006). Proteins were separated on 8% SDS-polyacrylamide gel, transferred onto nitrocellulose membranes (Amersham, 10600002), and incubated with primary antibodies at 4° C. for 18 hours. The following primary antibodies were used: anti-Helios rabbit monoclonal antibody (Cell Signaling, 42427, 1:3000) and anti-β-actin mouse monoclonal antibody (Santa Cruz, sc-47778, 1:5000). β-actin was used as a loading control. The next day, the membranes were washed with 1×TBST for 30 minutes and incubated with HRP-conjugated secondary antibodies corresponding to the primary antibodies at room temperature for 1 hour. The following secondary antibodies were used: anti-mouse IgG HRP-linked antibody (Sigma, A9044, 1:5000) and anti-rabbit IgG HRP-linked antibody (Cell Signaling, 7074, 1:5000). After washing with 1×TBST for 30 minutes, protein expression was visualized using the Pierce ECL Western blotting substrate (Thermo Fisher, 32106), and images were captured using a chemiluminescence image analysis system (GE Healthcare, AI680). The obtained images were quantified using the ImageJ software.

Structures are written as SMILES. Bounds are passed on as bounds.

IKZF2 (Helios), sequence (Q9UKS7 whole entry): as the sequence (Q9UKS7 whole entry) above
IKZF2 (Helios), sequence (Q96SW2 whole entry): as the sequence (Q96SW2 whole entry) above
IKZF2 (Helios), sequence (Q16531 whole entry partner): as the sequence (Q16531 whole entry partner) above

As for `Cc1c(C(=O)N2C3CCC2CC(c2ccc4c(c2)CN(C2CCC(=O)NC2=O)C4=O)C3)[nH]c2cc(Cl)ccc12` (stereo not drawn) [Compound 58, 3-(5-(8-(6-chloro-3-methyl-1H-indole-2-carbonyl)-8-azabicyclo[3.2.1]octan-3-yl)-1-oxoinsoindolin-2-yl)piperidine-2,6-dione], the “IKZF2 degradation activity (in words, comment on Table 1)” value at Helios (IKZF2) (as shown in Table 1) is on record as “excellent IKZF2 degradation activity”. Besides, the remaining activity at 10 µM at Helios (IKZF2) was determined as 5.2%. Also, the DC50 on IKZF2 (Helios) was 10 to 100 nM.

As to `Cc1c(C(=O)N2CCC(c3ccc4c(c3)CN(C3CCC(=O)NC3=O)C4=O)CC2C)[nH]c2cc(Cl)ccc12` (stereo not drawn) [Compound 60, 3-(5-(1-(6-chloro-3-methyl-1H-indole-2-carbonyl)-2-methylpiperidin-4-yl)-1-oxoinsoindolin-2-yl)piperidine-2,6-dione], on Helios (IKZF2), the remaining activity at 10 µM is 5.4%. Further, on IKZF2 (Helios), the DC50 is 10 to 100 nM.

As to `Cc1c(C(=O)N2CCC(O)(c3ccc4c(c3)CN(C3CCC(=O)NC3=O)C4=O)CC2)[nH]c2cc(Cl)ccc12` (stereo not drawn) [Compound 64, 3-(5-(1-(6-chloro-3-methyl-1H-indole-2-carbonyl)-4-hydroxypiperidin-4-yl)-1-oxoinsoindolin-2-yl)piperidine-2,6-dione], the remaining activity at 10 µM at Helios (IKZF2) was 8.1%. Moreover, the DC50 on IKZF2 (Helios) fell in the range of 10 to 100 nM.

On to `COc1cc2c(C)c(C(=O)N3CCC(c4ccc5c(c4)CN(C4CCC(=O)NC4=O)C5=O)CC3)[nH]c2cc1Cl` (stereo not drawn) [Compound 71, 3-(5-(1-(6-chloro-5-methoxy-3-methyl-1H-indole-2-carbonyl)piperidin-4-yl)-1-oxoinsoindolin-2-yl)piperidine-2,6-dione], for which, at Helios (IKZF2), the remaining activity at 1 µM turned out to be 14.2% and the remaining activity at 10 µM came out at 25.3%. Further, at IKZF2 (Helios), the Dmax amounted to 100% and the DC50 was less than 10 nM.

For the molecule `CCNC(=O)Nc1ccc2c(C)c(C(=O)N3CCC(c4ccc5c(c4)CN(C4CCC(=O)NC4=O)C5=O)CC3)[nH]c2c1` (stereo not drawn) [Compound 75, 1-(2-(4-(2-(2,6-dioxopiperidin-3-yl)-1-oxoindolin-5-yl)piperidine-1-carbonyl)-3-methyl-1H-indol-6-yl)-3-ethylurea], on Helios (IKZF2), the remaining activity at 1 µM was determined as 29.6% and the remaining activity at 10 µM amounted to 19%. The DC50 at IKZF2 (Helios) was 100 to 1000 nM.

Regarding `Cc1c(C(=O)N2CCC(c3ccc4c(c3)CN(C3CCC(=O)NC3=O)C4=O)CC2)[nH]c2cc([N+](=O)[O-])c(Cl)cc12` (stereo not drawn) [Compound 84, 3-(5-(1-(5-chloro-3-methyl-6-nitro-1H-indole-2-carbonyl)piperidin-4-yl)-1-oxoinsoindolin-2-yl)piperidine-2,6-dione], at Helios (IKZF2), the remaining activity at 10 µM was determined as 9.7%. Further, the DC50 at IKZF2 (Helios) was 100 to 1000 nM.

Regarding `Cc1cc2c(C)c(C(=O)N3CCC(c4ccc5c(c4)CN(C4CCC(=O)NC4=O)C5=O)CC3)[nH]c2cc1[N+](=O)[O-]` (stereo not drawn) [Compound 85, 3-(5-(1-(3,5-dimethyl-6-nitro-1H-indole-2-carbonyl)piperidin-4-yl)-1-oxoinsoindolin-2-yl)piperidine-2,6-dione], the remaining activity at 10 µM on Helios (IKZF2) came to 11%. The DC50 on IKZF2 (Helios) was 100 to 1000 nM.

In the case of `Cc1c(C(=O)N2CCC(c3ccc4c(c3)CN(C3CCC(=O)NC3=O)C4=O)CC2)[nH]c2cc([N+](=O)[O-])c(O)cc12` (stereo not drawn) [Compound 86, 3-(5-(1-(5-hydroxy-3-methyl-6-nitro-1H-indole-2-carbonyl)piperidin-4-yl)-1-oxoinsoindolin-2-yl)piperidine-2,6-dione], at Helios (IKZF2), the remaining activity at 10 µM was determined as 9.9%. Besides, the DC50 on IKZF2 (Helios) fell in the range of 10 to 100 nM.

Consider `CN(C)Cc1c(C(=O)N2CCC(c3ccc4c(c3)CN(C3CCC(=O)NC3=O)C4=O)CC2)[nH]c2cc(Cl)ccc12` (stereo not drawn) [Compound 87, 3-(5-(1-(6-chloro-3-((dimethylamino)methyl)-1H-indole-2-carbonyl)piperidin-4-yl)-1-oxoinsoindolin-2-yl)piperidine-2,6-dione], for which the remaining activity at 10 µM at Helios (IKZF2) was found to be 8.7%. Also, the DC50 at IKZF2 (Helios) fell in the range of 100 to 1000 nM.

For the molecule `Cc1c(C(=O)N2CCC(c3cc4c(cc3F)C(=O)N(C3CCC(=O)NC3=O)C4)CC2)[nH]c2cc(Cl)ccc12` (stereo not drawn) [Compound 90, 3-(5-(1-(6-chloro-3-methyl-1H-indole-2-carbonyl)piperidin-4-yl)-6-fluoro-1-oxoinsoindolin-2-yl)piperidine-2,6-dione], the remaining activity at 10 µM at Helios (IKZF2) worked out at 6.2%. Besides, at IKZF2 (Helios), the Dmax stood at 100% and the DC50 is less than 10 nM.

As for `Cc1c(C(=O)N2CCC(c3ccc4c(c3F)CN(C3CCC(=O)NC3=O)C4=O)CC2)[nH]c2cc(Cl)ccc12` (stereo not drawn) [Compound 91, 3-(5-(1-(6-chloro-3-methyl-1H-indole-2-carbonyl)piperidin-4-yl)-4-fluoro-1-oxoinsoindolin-2-yl)piperidine-2,6-dione], the remaining activity at 10 µM on Helios (IKZF2) was 6.4%. Besides, on IKZF2 (Helios), the Dmax came out at 100% and the DC50 is less than 10 nM.

Regarding `Cc1c(C(=O)N2CCC(c3cc4c(cc3F)C(=O)N(C3CCC(=O)NC3=O)C4)CC2)[nH]c2cc([N+](=O)[O-])ccc12` (stereo not drawn) [Compound 93, 3-(6-fluoro-5-(1-(3-methyl-6-nitro-1H-indole-2-carbonyl)piperidin-4-yl)-1-oxoinsoindolin-2-yl)piperidine-2,6-dione], on Helios (IKZF2), the remaining activity at 10 µM amounted to 26.5%. Besides, at IKZF2 (Helios), the Dmax amounted to 100% and the DC50 was less than 10 nM.

As for `Cc1c(C(=O)N2CCC(c3ccc4c(c3F)CN(C3CCC(=O)NC3=O)C4=O)CC2)[nH]c2cc([N+](=O)[O-])ccc12` (stereo not drawn) [Compound 94, 3-(4-fluoro-5-(1-(3-methyl-6-nitro-1H-indole-2-carbonyl)piperidin-4-yl)-1-oxoinsoindolin-2-yl)piperidine-2,6-dione], on Helios (IKZF2), the remaining activity at 10 µM was 8.5%. Moreover, at IKZF2 (Helios), the Dmax came to 100% and the DC50 was less than 10 nM.

As for `Cc1c(C(=O)N2CCC(c3ccc4c(c3)C(=O)N(C3CCC(=O)NC3=O)C4=O)CC2)[nH]c2cc([N+](=O)[O-])ccc12` (stereo not drawn) [Compound 95, 2-(2,6-dioxopiperidin-3-yl)-5-(1-(3-methyl-6-nitro-1H-indole-2-carbonyl)piperidin-4-yl)isoindoline-1,3-dione], the remaining activity at 10 µM at Helios (IKZF2) is 10.9%. The DC50 on IKZF2 (Helios) was 10 to 100 nM.

For `COc1cc2c(C)c(C(=O)N3CCC(c4ccc5c(c4)CN(C4CCC(=O)NC4=O)C5=O)CC3)[nH]c2cc1[N+](=O)[O-]` (stereo not drawn) [Compound 97, 3-(5-(1-(5-methoxy-3-methyl-6-nitro-1H-indole-2-carbonyl)piperidin-4-yl)-1-oxoinsoindolin-2-yl)piperidine-2,6-dione], on Helios (IKZF2), the remaining activity at 1 µM stood at 14.6% and the remaining activity at 10 µM was found to be 21.4%. At IKZF2 (Helios), the DC50 lay in the range of 10 to 100 nM.

In the case of `Cc1c(C(=O)N2CCC(c3ccc4c(c3)CN(C3CCC(=O)NC3=O)C4=O)CC2)[nH]c2c(F)c(Cl)ccc12` (stereo not drawn) [Compound 99, 3-(5-(1-(6-chloro-7-fluoro-3-methyl-1H-indole-2-carbonyl)piperidin-4-yl)-1-oxoinsoindolin-2-yl)piperidine-2,6-dione], on Helios (IKZF2), the remaining activity at 1 µM stood at 10.9% and the remaining activity at 10 µM came out at 14.6%. Besides, the DC50 on IKZF2 (Helios) was in the range of 10 to 100 nM.

With `Cc1c(C(=O)N2CCC(c3ccc4c(c3)CN(C3CCC(=O)NC3=O)C4=O)CC2)[nH]c2cc(Cl)c(O)cc12` (stereo not drawn) [Compound 101, 3-(5-(1-(6-chloro-5-hydroxy-3-methyl-1H-indole-2-carbonyl)piperidin-4-yl)-1-oxoinsoindolin-2-yl)piperidine-2,6-dione], at Helios (IKZF2), the remaining activity at 1 µM was determined as 15.7% and the remaining activity at 10 µM was determined as 20.7%. On IKZF2 (Helios), the Dmax amounted to 100% and the DC50 was 10 to 100 nM.

With `Cc1c(C(=O)N2CCC(c3ccc4c(c3)CN(C3CCC(=O)NC3=O)C4=O)CC2)[nH]c2cc(Cl)c(F)cc12` (stereo not drawn) [Compound 102, 3-(5-(1-(6-chloro-5-fluoro-3-methyl-1H-indole-2-carbonyl)piperidin-4-yl)-1-oxoinsoindolin-2-yl)piperidine-2,6-dione], on Helios (IKZF2), the remaining activity at 1 µM came to 21.8% and the remaining activity at 10 µM was determined as 26.2%. Besides, at IKZF2 (Helios), the Dmax came out at 100% and the DC50 was less than 10 nM.

Turning to `COc1cc2c(C)c(C(=O)N3CCC(c4ccc5c(c4F)CN(C4CCC(=O)NC4=O)C5=O)CC3)[nH]c2cc1Cl` (stereo not drawn) [Compound 108, 3-(5-(1-(6-chloro-5-methoxy-3-methyl-1H-indole-2-carbonyl)piperidin-4-yl)-4-fluoro-1-oxoinsoindolin-2-yl)piperidine-2,6-dione], on Helios (IKZF2), the remaining activity at 1 µM stood at 8.3% and the remaining activity at 10 µM is 7.5%. On IKZF2 (Helios), the Dmax came to 100% and the DC50 was less than 10 nM.
